Test results as given in EP2072511A1 (INSERM (Institut National de la Santé et de la Recherche …, priority 2007, dated 2009).

Legend:
[1] = biological target: T1, PrP^Sc from a prion-infected cellular lysate (Mus musculus, UniProt P04925)
[2] = biological target: PrP^Sc from infected N2a58/22L cells (Mus musculus, UniProt P04925); type: cell-based, murine
[3] = biological target: T1, PrP^Sc from a prion-infected cellular lysate; assay: biochemical; conditions: 1 h, read-out: amplification of the oligomerization in cellular extract

Sequence of PrP^Sc from infected N2a58/22L cells (P04925 23-230 limits assumed): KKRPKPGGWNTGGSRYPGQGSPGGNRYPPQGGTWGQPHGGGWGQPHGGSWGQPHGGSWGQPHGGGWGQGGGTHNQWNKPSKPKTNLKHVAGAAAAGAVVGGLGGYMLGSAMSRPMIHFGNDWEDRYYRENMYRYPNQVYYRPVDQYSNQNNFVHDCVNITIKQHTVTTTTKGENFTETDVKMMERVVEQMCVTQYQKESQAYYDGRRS
T1 sequence (P04925 23-230 limits assumed): as above

Structure (SMILES)	concentration at which the compound is efficient (oligomerization on cellular extract) [1] [µM]	amount of oligomeric forms observed, compared with compound T 1 or T2 under the same conditions [2]	dosis for which the saturation of the signal (effect of oligomerisation) is achieved [2] [µM]	fold induction at 1 µM [3]
CSc1nccc(-c2ccc(Br)s2)n1 [T1]	≥ 312	–	–	–
Nc1nc(N)nc(-c2ccc(-c3ccc(-c4ccc(-c5ccc(-c6nc(N)nc(N)n6)s5)s4)s3)s2)n1 [compound I, 6,6'-(2,2':5',2":5",2'''-quaterthiophene-5,5'''-diyl)bis(1,3,5-triazine-2,4-diamine)]	–	much greater	2.5	≥ 100
